Ends that are not written are not given here.
Key:
[1] = system: protein levels of ACC1, FAS and ACSS2; test: Immunoblotting of MDA-MB-231-derived cells treated with mTOR inhibitor; assay type: cell-based, human; details: serum-starved 24 h, 0.1 μM for 5 h; for protein levels of ACC1, FAS and ACSS2: control or S671A-expressing cells
Excerpt: FIGS. 6A to 6H show mutation of DAXX phosphorylation sites disrupts DAXX-SREBP2 interaction, impairs lipogenesis and tumor growth. […] The GFP-wt DAXX was transfected alone in the absence of FLAG-SREBP2 as a control (lane 7). The lysates of transfected cells were subjected to IP with an anti-FLAG antibody. Both DAXX and FLAG-SREBP2 were detected in immunoprecipitates and input lysates. […] The precipitated DNAs were subjected to qPCR with primers specific to promoter regions of the indicated genes. qPCRs for the 3′ UTR of the FASN and ACACA genes serve as negative control. […] ATRX qRT-PCR serves as a control for genes not regulated by SREBPs. […] Cells were serum-starved for 24 h. DMSO or a mTOR inhibitor (0.1 μM final concentration) was added for 5 h before cell lysis. […] RNAs were isolated from cells cultured in serum-free DMEM for 24 h as in FIG. 6D.
For immunoblotting analyses of cell lysates of monolayer cultures, medium was removed from culture plates and 1× Passive Lysis buffer (Promega) was added. The plates were frozen at −80° C. overnight and then thawed at room temperature. The lysates were transferred to a centrifuge tube. To prepare tumor lysates, xenograft tumor tissues were fragmented in the presence of liquid nitrogen, approximately 50 mg of tumor fragment was homogenized in 1 mL of 1× RIPA lysis buffer on ice using a micro-homogenizer. After brief sonication at a low power output for 5 sec on ice, the lysates were cleared by centrifugation at 13,000 rpm for 15 min at 4° C. Protein contents were quantified using a Qubit protein assay kit. Protein extracts from cell culture or tumor lysates were subjected to SDS-PAGE and electro-blotting as above.

[2] = Tolerability in tumor-bearing mice (body weights); assay type: in vivo; details: 25 mg/kg i.p. daily weekdays
Description: FIGS. 7A to 7E show the DAXX SIM2 peptide disrupts DAXX-SREBP interaction and suppresses tumor growth in vivo. […] The immunoprecipitates, input and supernatants were analyzed by immunoblotting. […] Mice were dosed i.p. daily weekdays for three weeks with vehicle or SIM2 (25 mg/kg). Longitudinal tumor volumes, mouse body weights, and endpoint tumor weights and images are shown. […] Protein extracts from three representative MDA-MB-231 xenograft tumors in vehicle and SIM2-treated mice were subjected to immunoblotting. HSP60 was detected as a loading control. […] Mice were dosed as in FIG. 7B. Longitudinal tumor volumes, mouse body weights, and endpoint tumor weights and tumor images are shown. […] Shown are a plot of a principal component analysis of lipid molecules detected by LC/MS, a heatmap of top lipid species, and bar graphs of relative abundance of the indicated lipid molecules. […] The p values were calculated based on Student's t-test. *: p<0.05; **: […].
For the in vivo SIM2 treatment study, MDA-MB-231 xenograft tumors were established as above and the mouse mammary tumor cell line 4T1 syngeneic tumors were established by transplanting one million cells in 100 μl of DMEM into mammary fat pads of female BALB/c mice. […] During the treatment, tumor dimensions and mouse body weights were recorded once weekly. […]

[3] = system: MDA-MB-231 and MDA-MB-468 cells; test: Cell internalization of TAMRA-SIM2 by microscopy; assay type: cell-based, human; details: TAMRA-SIM2 1 μM, 1 hour
Description: FIGS. 18A to 18I show SIM2 peptide blocks lipogenesis. […] MDA-MB-231 and MDA-MB-468 cells were exposed to TAMRA-SIM2 (1 μM) for 1 hour and visualized by microscopy. […] Fluorescence polarization assay was performed in the presence of TAMRA-SIM2 and increased concentrations of SUMO1. FIGS. 18C-18H show SIM2 blocks de novo lipogenesis in MDA-MB-231 control or DAXX OE (FIG. 18C), MDA-MB-468 (FIG. 18D), Hs578T (FIG. 18E), HCT116 (FIG. 18F), 4T1 (FIG. 18G), and CT26.CL25 (FIG. 18H). Serum-starved cells were not treated (control) or exposed to SIM2 (10 μM) and labeled with [^14C] acetate. The levels of labeled lipids were quantified. […] MDA-MB-231 control and DAXX OE cell lines were untreated (control) or treated with SIM2 (10 μM). At 24 h after treatment, RNA was isolated and subject to qRT-PCR. RNA levels were normalized against that of ACTB. The p values shown are based on t-test.

Compound | protein levels of ACC1, FAS and ACSS2 [1] | levels of ACC1 and FAS ([1]; cells expressing the S495A mutant) | tolerability in vivo [2] | internalization into cells [3]
COc1ccc(-c2ccc3c(N4CCOC[C@@H]4C)nc(N4CCOC[C@@H]4C)nc3n2)cc1CO [AZD8055] | Neither of these inhibitors had obvious effects |  |  | 
CO[C@H]1C[C@@H]2CC[C@@H](C)[C@@](O)(O2)C(=O)C(=O)N2CCCC[C@H]2C(=O)O[C@H]([C@H](C)C[C@@H]2CC[C@@H](OC(=O)C(C)(CO)CO)[C@H](OC)C2)CC(=O)[C@H](C)/C=C(\C)[C@@H](O)[C@@H](OC)C(=O)[C@H](C)C[C@H](C)/C=C/C=C/C=C/1C [temsirolimus] | Neither of these inhibitors had obvious effects | reduced levels of both ACC1 and FAS |  | 
DPEEIIVLSDSD [SIM2, DPEEIIVLSDSD] |  |  | highly tolerated in vivo | spontaneously and rapidly internalized into cells
